Key:
[1] = target: T1, Human ACC2 (ACC2 (Nd), N terminal deleted) (Homo sapiens, UniProt O00763); test: Measurement of ACC2 inhibitory activity (malachite green, recombinant ACC2 (Nd)); assay type: biochemical; conditions: 10 μM test compound; 20 min preincubation at 30° C., 20 min reaction; read-out: ACC2 inhibitory rate at 10 μM (%)
T1 construct: made in house; host or cells: SF-9 insect cells (baculovirus)
Description: The ACC2 inhibitory action of the compound of the present invention was evaluated by the following method.
(1) Cloning of Human ACC2 Gene and Preparation of Recombinant Baculovirus
Human ACC2 gene was cloned by PCR using a human skeletal muscle cDNA library (Clontech) as a template and Primer 1 and Primer 2 shown below. Primer 1 and Primer 2 were prepared by adding SalI, XbaI restriction enzyme recognition sequences based on the information of the base sequence of human ACC2 gene (Genbank Accession U89344).
(§1) PCR was performed using Pyrobest DNA polymerase (TAKARA BIO INC.). The obtained PCR product was cloned to pT7 Blue vector (Novagen) and after confirmation of the base sequence, digested with restriction enzymes SalI and XbaI. The obtained DNA fragment was inserted into pFAST-BacHTa (Invitrogen) digested with restriction enzymes Sail and XbaI to give expression plasmid ACC2/pFAST-BacHTa.
A plasmid for expression of ACC2 without a mitochondrial targeting sequence was prepared by PCR using the expression plasmid as a template, and Primer 3 (salI restriction enzyme recognition sequence was added) and Primer 4, which are prepared by reference to the information of human ACC2 gene base sequence (Genbank Accession U89344).
as §1, with “Pyrobest-DNA” for “Pyrobest DNA”, “Aflil.” for “XbaI.”, “ACC2/pFAST-BacHTa” for “pFAST-BacHTa (Invitrogen)”, “SalI” for “Sail”, “AfilI” for “XbaI”, “ACC2mito7/pFAST-BacHTa.” for “ACC2/pFAST-BacHTa.”
Using the expression plasmid ACC2mito7/pFAST-BacHTa and BAC-TO-BAC Baculovirus Expression System (Invitrogen), virus stock BAC-ACC2 of recombinant Baculovirus (N terminal deleted (hereinafter Nd)) was prepared.
(2) Preparation of ACC2 (Nd) Protein
SF-9 cells (Invitrogen) were inoculated to a medium (2 L) for insect cells (Sf-900IISFM medium (Invitrogen) containing 10% fetal bovine serum (Trace), 50 mg/L Gentamicin (Invitrogen), 0.1% Pluronic F-68 (Invitrogen)) at 0.5×10^6 cells/mL, and cultured with shaking in Wave Bioreactor (Wave) at 27° C., 20 rpm, rocking angle 6°, oxygen concentration 30%.
On day 4 of the culture, 3 L of the medium for insect cells was added, the rocking angle was set to 8°, and the cells were further cultured. On day 5 of the culture, 100 mL of recombinant Baculovirus BAC-ACC2 (Nd) was added, 5 L of the medium for insect cells was further added, the rocking angle was set to 11°, and the cells were cultured for 3 days. The culture medium was centrifuged at 1000×g for 10 min to give virus-infected cells. The cells were washed with phosphate buffered saline (Invitrogen) and centrifuged under the same conditions. The obtained cells were cryopreserved at −80° C.
The cryopreserved cells were thawed in ice and suspended in 900 mL of 25 mM HEPES buffer (pH 7.5) containing 10% Glycerol, 0.13 M NaCl, 1 mM EDTA, 25 mM Sodium β-Glycerophosphate and 1 mM Sodium Orthovanadate, and supplemented with Complete Protease Inhibitor (Nippon Boehringer Ingelheim Co., Ltd.). The obtained suspension was homogenized three times in a polytron homogenizer (Kinematica) at 20,000 rpm for 30 sec. The obtained cell disruption solution was clarified by centrifugation at 31000×g for 60 min, and filtered through a 0.45 μm filter. The filtrate was passed through a column packed with 60 mL of Ni-NTA Super Flow Gel (QUIAGEN) at a flow rate of about 5 mL/min. The column was washed with buffer A (50 mM HEPES (pH 7.5) containing 0.3 M NaCl), further washed with buffer A containing 20 mM Imidazole, and eluted with buffer A containing 100 mM Imidazole. The eluate was concentrated with Vivaspin 20 (Vivascience) with a molecular weight cut off of 30K. The obtained concentrate was dialyzed against 50 mM HEPES (pH 7.5) containing 10 mM MgCl2, 2 mM Dithiothreitol, 10 mM Tripotassium Citrate and 0.3 M NaCl. […]

[2] = tested on: Malonyl-CoA content of femoral muscle; test: Malonyl CoA content measurement in femoral muscle after gavage (LC/MS/MS); assay type: in vivo; conditions: male F344/Jcl rats, 10 mg/kg by gavage, femoral muscle 2 hours after dosing; Mean ± S.D.; vehicle 1.955 ± 0.496
Description: Male F344/Jcl rats (CLEA Japan, Inc., Tokyo) purchased at 5 weeks of age were acclimated to the rearing environment, and used for an experiment of malonyl CoA content measurement at 10 weeks of age. In the experiment of malonyl CoA content measurement, the body weight was measured in the morning (8:00-11:00) 3 days before administration of a test compound, and the rats were divided into groups free of dispersion in the body weight between administration groups. The test compound was prepared as a 0.5% methyl cellulose (Wako) suspension to a dose of 5 mL/kg, in the afternoon (12:00-17:00) of one day before administration by gavage, and administered by gavage according to the body weight on the day of test compound administration. The vehicle group was administered with a solvent (0.5% methyl cellulose) alone by gavage. […]
A sample homogenate for the malonyl CoA measurement was prepared by disrupting a frozen tissue with a measured weight in a Multi-beads shocker (MB400U, Yasui Kikai Corporation), adding an extract (6% perchloric acid:aqueous di-n-butylammonium acetate solution (IPC-DBAA, 0.5 mol/L, TOKYO CHEMICAL INDUSTRY CO., LTD.)=1000:1, 500 μL) containing an internal standard substance ([^13C3]-malonyl CoA lithium salt (100 pmol/mL, Sigma-Aldrich)), and applying the mixture to the Multi-beads shocker again. […]

T1 sequence (O00763 117-2458 limits assumed, stated change not applied): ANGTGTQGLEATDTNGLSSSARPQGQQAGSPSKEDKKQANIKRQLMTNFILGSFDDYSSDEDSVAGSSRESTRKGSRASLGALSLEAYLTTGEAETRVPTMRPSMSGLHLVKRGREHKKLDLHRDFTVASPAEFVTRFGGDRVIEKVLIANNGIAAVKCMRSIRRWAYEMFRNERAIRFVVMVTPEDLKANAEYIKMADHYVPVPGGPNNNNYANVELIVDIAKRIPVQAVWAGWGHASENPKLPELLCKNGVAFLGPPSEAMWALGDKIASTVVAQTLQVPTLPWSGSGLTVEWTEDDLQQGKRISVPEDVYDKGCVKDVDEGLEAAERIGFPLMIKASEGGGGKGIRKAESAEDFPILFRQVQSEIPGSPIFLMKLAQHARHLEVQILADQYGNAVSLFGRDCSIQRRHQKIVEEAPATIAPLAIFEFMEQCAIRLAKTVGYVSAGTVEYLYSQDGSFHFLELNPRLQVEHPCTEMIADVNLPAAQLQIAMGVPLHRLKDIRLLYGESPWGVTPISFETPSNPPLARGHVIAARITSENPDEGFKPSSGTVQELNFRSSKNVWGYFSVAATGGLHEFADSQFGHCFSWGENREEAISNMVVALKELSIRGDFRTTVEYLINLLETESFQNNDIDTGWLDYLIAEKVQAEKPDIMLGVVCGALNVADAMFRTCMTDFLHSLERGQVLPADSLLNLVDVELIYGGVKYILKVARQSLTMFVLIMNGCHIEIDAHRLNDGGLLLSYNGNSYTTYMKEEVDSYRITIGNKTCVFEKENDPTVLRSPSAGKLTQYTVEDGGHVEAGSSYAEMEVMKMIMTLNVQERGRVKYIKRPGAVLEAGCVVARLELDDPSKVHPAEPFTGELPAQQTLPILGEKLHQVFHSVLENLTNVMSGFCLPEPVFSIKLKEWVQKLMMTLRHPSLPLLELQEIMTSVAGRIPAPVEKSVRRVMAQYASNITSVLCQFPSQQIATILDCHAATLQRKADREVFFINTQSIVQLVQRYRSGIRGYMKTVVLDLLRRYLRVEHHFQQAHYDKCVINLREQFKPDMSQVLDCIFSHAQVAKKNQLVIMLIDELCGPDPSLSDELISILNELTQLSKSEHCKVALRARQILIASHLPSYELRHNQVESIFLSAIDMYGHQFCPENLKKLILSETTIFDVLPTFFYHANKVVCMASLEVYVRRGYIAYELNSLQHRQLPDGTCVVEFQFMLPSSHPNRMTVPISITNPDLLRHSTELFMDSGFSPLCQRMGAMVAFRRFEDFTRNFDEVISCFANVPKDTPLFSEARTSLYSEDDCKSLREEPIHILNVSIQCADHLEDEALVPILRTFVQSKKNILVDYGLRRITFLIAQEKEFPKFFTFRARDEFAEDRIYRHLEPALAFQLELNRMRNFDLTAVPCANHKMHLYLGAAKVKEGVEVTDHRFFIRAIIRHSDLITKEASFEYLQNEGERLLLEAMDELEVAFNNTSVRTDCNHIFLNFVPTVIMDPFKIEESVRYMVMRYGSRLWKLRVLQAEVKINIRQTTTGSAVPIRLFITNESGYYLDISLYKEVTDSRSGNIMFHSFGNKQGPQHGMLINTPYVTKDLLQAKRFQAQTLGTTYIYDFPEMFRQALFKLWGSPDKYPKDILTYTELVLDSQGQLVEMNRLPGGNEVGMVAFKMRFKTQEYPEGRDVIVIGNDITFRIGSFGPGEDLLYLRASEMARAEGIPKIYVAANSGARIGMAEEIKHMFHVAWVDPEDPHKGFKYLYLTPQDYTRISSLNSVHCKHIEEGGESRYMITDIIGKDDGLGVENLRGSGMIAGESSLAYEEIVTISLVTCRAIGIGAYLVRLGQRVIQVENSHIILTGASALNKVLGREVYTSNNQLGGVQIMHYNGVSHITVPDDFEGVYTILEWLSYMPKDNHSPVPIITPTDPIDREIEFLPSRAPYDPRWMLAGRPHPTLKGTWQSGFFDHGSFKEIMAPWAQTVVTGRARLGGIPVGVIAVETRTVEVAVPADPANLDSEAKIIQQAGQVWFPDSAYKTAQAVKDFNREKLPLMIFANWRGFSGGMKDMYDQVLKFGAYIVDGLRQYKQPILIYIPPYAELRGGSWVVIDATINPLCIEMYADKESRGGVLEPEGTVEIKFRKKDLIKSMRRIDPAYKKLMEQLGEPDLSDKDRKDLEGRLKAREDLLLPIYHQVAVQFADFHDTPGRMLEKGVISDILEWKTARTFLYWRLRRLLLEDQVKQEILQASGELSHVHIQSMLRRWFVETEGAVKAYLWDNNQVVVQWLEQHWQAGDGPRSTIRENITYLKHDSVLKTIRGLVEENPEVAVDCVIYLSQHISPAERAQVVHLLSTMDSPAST

SMILES | melting point [°C] | inhibition at 10 µM [1] [%] | malonyl-CoA (nmol/g-tissue), Malonyl-CoA content of femoral muscle at 2 hours after dosing [2] [nmol/g-tissue]
CC(=O)N[C@@H](C)COc1cc(-c2nc3cc(OCC4CC4)ccc3o2)on1 [Example 2, N-[(1S)-2-({5-[5-(cyclopropylmethoxy)-1,3-benzoxazol-2-yl]isoxazol-3-yl}oxy)-1-methylethyl]acetamide] | 156 to 157 | 92 | –
CC(=O)N[C@@H](C)COc1cnc(-c2nc3ccc(OCC4CC4)cc3o2)c(F)c1 [Example 6, N-[(1S)-2-({6-[6-(cyclopropylmethoxy)-1,3-benzoxazol-2-yl]-5-fluoropyridin-3-yl}oxy)-1-methylethyl]acetamide] | 158 to 159 | 95 | 0.513 ± 0.048
CCOc1ccc2nc(-c3ccc(OC[C@H](C)NC(C)=O)cn3)oc2c1 [Example 28, N-[(1S)-2-{[6-(6-ethoxy-1,3-benzoxazol-2-yl)pyridin-3-yl]oxy}-1-methylethyl]acetamide] | – | 83 | 0.663 ± 0.119
CC(=O)N[C@@H](C)COc1ccc(-c2nc3ccc(OCC4CC4)cc3o2)nc1 [Example 1, N-[(1S)-2-({6-[6-(cyclopropylmethoxy)-1,3-benzoxazol-2-yl]pyridin-3-yl}oxy)-1-methylethyl]acetamide] | 179 to 180 | 101 | –
CC(=O)N[C@@H](C)COc1ccc(-c2nc3ccc(OCC4CC4)cc3o2)cc1 [Example 3, N-[(1S)-2-{4-[6-(cyclopropylmethoxy)-1,3-benzoxazol-2-yl]phenoxy}-1-methylethyl]acetamide] | – | 99 | –
C[C@@H](COc1ccc(-c2nc3ccc(OCC4CC4)cc3o2)nc1)NC(N)=O [Example 15, 1-[(1S)-2-({6-[6-(cyclopropylmethoxy)-1,3-benzoxazol-2-yl]pyridin-3-yl}oxy)-1-methylethyl]urea] | – | 92 | –
CC(=O)N[C@@H](C)COc1ccc(-c2nc3ccc(OCC4CC4)cn3c2F)cc1 [Example 92, N-[(1S)-2-{4-[6-(cyclopropylmethoxy)-3-fluoroimidazo[1,2-a]pyridin-2-yl]phenoxy}-1-methylethyl]acetamide] | – | 93 | –

Source: patent publication US8729102B2, “Bicyclic compound” (Takeda Pharmaceutical Company Limited, priority 2010, dated 2014)
